Assay results published in paper PMC5556071, “ATR inhibition facilitates targeting of leukemia dependence on convergent nucleotide biosynthetic pathways” (Nature Communications, 2017).
Where “and” joins values, the source holds several entries; their conditions need not be identical. Equal entries are not always repeated.

System: CEM cells
Test: Non-targeted LC-MS metabolite profiling: percent [13C6]glucose labeling and relative metabolite levels
Format: cell-based, human
Source text: To further investigate the functions of dCK and ATR at the G1/S transition in CEM cells, a non-targeted liquid chromatography mass spectrometry (LC-MS) assay was used to determine the utilization of labeled [^13C6]glucose and [^13C9,^15N3]deoxycytidine, the main substrates for de novo and salvage nucleotide biosynthesis, respectively. Of the 166 metabolites identified in CEM cells treated with VE-822 and/or dCKi, 105 metabolites found in all four treatment groups contained glucose-derived ^13C atoms. […] These metabolites included intermediates such as rUTP, rCTP and rCDP in the de novo dCTP biosynthesis (Fig. 1d). […] However, several deoxyribonucleotides, including dCTP, were below the limit of detection of the non-targeted LC-MS approach, raising the concern that the sensitivity of this assay is not sufficient to measure the contribution of the salvage pathway or the ratio of de novo and salvage biosynthesis to these pools. To address this problem, a newly developed targeted MS assay was developed (Fig. 1e and Supplementary Fig. 3). In this assay, samples containing either extracted dNTPs or hydrolyzed DNA from labeled cells are separated by LC for detection by a triple quadrupole mass spectrometer using multiple reaction monitoring (LC-MS/MS-MRM). The first (Q1) and third (Q3) quadrupoles function as mass filters, while the second (Q2) quadrupole serves as a collision chamber (Fig. 1e). For instance, to profile the biosynthetic composition of deoxycytidine (dC) derived from hydrolyzed DNA or dCTP, an intact, protonated dC ion is selected in Q1, followed by fragmentation of the glycosidic bond, which releases protonated cytosine in Q2, that is filtered in Q3 and detected to generate an ion chromatogram. The peak areas for the ion chromatograms of salvage [^13C9,^15N3]dC (red trace), de novo [^13C5]dC (black trace, from [^13C6]glucose) and unlabeled dC (gray trace) (Fig. 1e) are used to determine the relative contributions of the de novo and salvage routes both to dCTP pools and to DNA-incorporated dCTP.
Cells were transferred into RPMI-1640 without glucose and supplemented with 10% dialyzed FBS (Gibco) containing the following labeled substrates: precursors for de novo [U-^13C6]glucose (Sigma-Aldrich, 389374) at 11 mM; precursors for purine salvage [U-^13C10,^15N5]dA (Cambridge Isotopes, CIL 3896), [^15N5]dA (Cambridge Isotopes, NLM-3895) and [^15N5]dG (Cambridge Isotopes, NLM-3899) at 5 µM or as indicated; and precursors for pyrimidine salvage: [U-^13C9,^15N3]dC (Silantes, 124603602) and [U-^13C10,^15N2]dT (Cambridge Isotopes, CNLM-3902) at 5 µM and [^15N2]orotate (Cambridge Isotopes, NLM-1048) at indicated concentrations. The cells were incubated for 12 h or as indicated before sample collection and processing. […]
Non-targeted LC-MS metabolic assays. 1 x 10^6 cells were washed with ice-cold 150 mM ammonium acetate twice before adding 1 mL of ice-cold 80% methanol with 10 nM norvaline as an internal standard. After vigorous vortexing, samples were centrifuged at maximum speed, the aqueous layer was transferred to a glass vial and the metabolites were dried under vacuum. Metabolites were resuspended in 50 μL 70% acetonitrile (ACN) and 5 μL of this solution used for the mass spectrometer-based analysis. The analysis was performed on a Q Exactive (Thermo Scientific) in polarity-switching mode with positive voltage 4.0 kV and negative voltage 4.0 kV. The mass spectrometer was coupled to an UltiMate 3000RSLC (Thermo Scientific) UHPLC system. Mobile phase A was 5 mM ammonium acetate (NH4AcO), pH 9.9, B was acetonitrile and the separation achieved on a Luna […] NH2 100 A column (150 × 2.0 mm, Phenomenex). The flow was 200 μL/min, and the gradient ran from 15% A to 95% A in 18 min, followed by an isocratic step for 9 min and re-equilibration for 7 min. Metabolites were detected and quantified as area under the curve based on retention time and accurate mass (≤ 3 p.p.m.) using the TraceFinder 3.1 (Thermo Scientific). Relative amounts of […]

[1] = metabolite Gln (KEGG C00064), CEM cells, 12 h following release from G1 arrest, replicates #1-#6, listed as V
[2] = metabolite Glu (KEGG C00025), CEM cells, 12 h following release from G1 arrest, replicates #1-#6, listed as V
[3] = metabolite GlucA (KEGG C00191), CEM cells, 12 h following release from G1 arrest, replicates #1-#6, listed as V
[4] = metabolite Gly (KEGG C00037), CEM cells, 12 h following release from G1 arrest, replicates #1-#6, listed as V
[5] = metabolite Glycerol (KEGG C00116), CEM cells, 12 h following release from G1 arrest, replicates #1-#6, listed as V
[6] = metabolite Glycerol-2-P (KEGG C02979), CEM cells, 12 h following release from G1 arrest, replicates #1-#6, listed as V
[7] = metabolite Glycerol-3-P (KEGG C00093), CEM cells, 12 h following release from G1 arrest, replicates #1-#6, listed as V
[8] = metabolite Homocysteine (KEGG C00155), CEM cells, 12 h following release from G1 arrest, replicates #1-#6, listed as V
[9] = metabolite Hypoxanthine (KEGG C00262), CEM cells, 12 h following release from G1 arrest, replicates #1-#6, listed as V
[10] = metabolite IMP (KEGG C00130), CEM cells, 12 h following release from G1 arrest, replicates #1-#6, listed as V
[11] = metabolite Inosine (KEGG C00294), CEM cells, 12 h following release from G1 arrest, replicates #1-#6, listed as V
[12] = metabolite a-KG (C00026), CEM cells, 12 h following release from G1 arrest, replicates #1-#6, listed as V

Question: CNCc1ccc(-c2cc(-c3nc(-c4ccc(S(=O)(=O)C(C)C)cc4)cnc3N)on2)cc1 [VE-822] was tested. Which “Glucose labeling of Gln” value [1] did it give?
Answer: 0.12% (2×) and 0.11% and 0.10% and 0.14% and 0.13%

Question: What about the “Relative level of Gln” value [1] of the same molecule?
Answer: 1.4 and 1.5 (2×) and 1.0 (2×) and 1.1

Question: And the “Glucose labeling of Glu” value [2]?
Answer: 29.64% and 29.75% and 29.30% and 29.37% and 29.63% and 30.02%

Question: And the “Relative level of Glu” value [2]?
Answer: 1.1 and 1.0 (2×) and 0.8 and 0.6 (2×)

Question: What about the “Glucose labeling of GlucA” value [3] of the same molecule?
Answer: 1.00% and 0.54% and 0.16% and 1.19% and 0.18% (2×)

Question: And the “Relative level of GlucA” value [3]?
Answer: 1.5 and 1.3 (2×) and 0.9 and 0.664 and 0.6

Question: And the “Glucose labeling of Gly” value [4]?
Answer: 3.91% and 4.81% and 4.97% and 3.57% and 3.82% and 3.53%

Question: And the “Relative level of Gly” value [4]?
Answer: 1.8 and 1.3 (2×) and 0.853 and 0.8 and 0.846

Question: And the “Glucose labeling of Glycerol” value [5]?
Answer: 0.0369% (3×) and 0.02% and 0.03% and 0.0184%

Question: And the “Relative level of Glycerol” value [5]?
Answer: 0.6 and 1.0 and 0.643 and 1.2 (2×) and 2.5

Question: What about the “Glucose labeling of Glycerol-2-P” value [6] of the same molecule?
Answer: 20.62% and 19.08% and 14.73% and 9.01% and 11.61% and 10.03%

Question: What about the “Relative level of Glycerol-2-P” value [6] of the same molecule?
Answer: 2.7 and 1.2 and 1.6 and 1.8 and 0.334 and 0.262

Question: What about the “Glucose labeling of Glycerol-3-P” value [7] of the same molecule?
Answer: 13.71% and 13.99% and 13.43% and 15.94% and 16.61% and 16.91%

Question: What about the “Relative level of Glycerol-3-P” value [7] of the same molecule?
Answer: 1.3 and 1.4 (2×) and 1.0 (2×) and 0.9

Question: And the “Glucose labeling of HS2O3” value (metabolite HS2O3 (KEGG C00320), CEM cells, 12 h following release from G1 arrest, replicates #1-#6)?
Answer: 100.00%

Question: And the “Relative level of HS2O3” value (metabolite HS2O3 (KEGG C00320), CEM cells, 12 h following release from G1 arrest, replicates #1-#6, listed as V)?
Answer: 1.2 and 0.9 and 1.0 (3×) and 1.1

Question: What about the “Glucose labeling of His” value (metabolite His (KEGG C00135), CEM cells, 12 h following release from G1 arrest, replicates #1-#6) of the same molecule?
Answer: 0.00%

Question: What about the “Relative level of His” value (metabolite His (KEGG C00135), CEM cells, 12 h following release from G1 arrest, replicates #1-#6, listed as V) of the same molecule?
Answer: 1.3 and 1.5 and 1.4 and 0.7 and 0.8 (2×)

Question: And the “Glucose labeling of Homocysteine” value [8]?
Answer: 0.000288% and 0.000653% and 0.00102% and 0.000955% and 0.0737% (2×)

Question: And the “Relative level of Homocysteine” value [8]?
Answer: 2.9 and 3.8 and 5.4 and 40.5 and 0.9 and 1.3

Question: And the “Glucose labeling of Hypoxanthine” value [9]?
Answer: 0.12% (2×) and 0.05% and 0.0153% and 0.00222% and 0.0636%

Question: What about the “Relative level of Hypoxanthine” value [9] of the same molecule?
Answer: 2.4 and 3.2 and 4.8 and 46.0 and 2.3 and 1.3

Question: And the “Glucose labeling of IMP” value [10]?
Answer: 85.88% and 80.98% and 88.08% and 72.70% and 96.97% and 95.32%

Question: And the “Relative level of IMP” value [10]?
Answer: 2.4 and 1.3 (2×) and 1.7 and 0.4 (2×)

Question: What about the “Glucose labeling of Inosine” value [11] of the same molecule?
Answer: 46.28% and 0.55% and 45.89% and 28.71% and 31.06% and 6.95%

Question: What about the “Relative level of Inosine” value [11] of the same molecule?
Answer: 1.9 and 1.5 and 4.0 and 5.0 and 1.2 and 4.1

Question: And the “Glucose labeling of Inositol” value (metabolite Inositol (KEGG C00137), CEM cells, 12 h following release from G1 arrest, replicates #1-#6)?
Answer: 0.00%

Question: What about the “Relative level of Inositol” value (metabolite Inositol (KEGG C00137), CEM cells, 12 h following release from G1 arrest, replicates #1-#6, listed as V) of the same molecule?
Answer: 1.2 and 1.3 (2×) and 1.0 (3×)

Question: What about the “Glucose labeling of Isocaproate” value (metabolite Isocaproate (X00005), CEM cells, 12 h following release from G1 arrest, replicates #1-#6) of the same molecule?
Answer: 0.00%

Question: What about the “Relative level of Isocaproate” value (metabolite Isocaproate (X00005), CEM cells, 12 h following release from G1 arrest, replicates #1-#6, listed as V) of the same molecule?
Answer: 0.949 and 1.1 and 1.2 and 0.9 and 1.0 and 0.7

Question: What about the “Glucose labeling, a-KG” value [12] of the same molecule?
Answer: 12.64% and 3.49% and 7.53% and 10.05% and 2.98% and 1.28%

Question: And the “Relative level, a-KG” value [12]?
Answer: 1.7 and 0.7 and 1.0 and 0.9 and 0.3 and 0.255

Question: What about the “decrease of glucose labeling of orotidine monophosphate (OMP)” value (non-targeted LC-MS analysis) of the same molecule?
Answer: 30%
